Reference: ChEMBL document CHEMBL2375251, “Anticancer activity of novel hybrid molecules containing 5-benzylidene thiazolidine-2,4-dione” (Eur J Med Chem, 2013)
Calls of active or inactive are those of the source. The calls are words filed in the database; no cut-off is given here.

Legend:
[1] = system: MOLT-3; experiment: Induction of apoptosis in human MOLT3 cells assessed as caspase 3/7-mediated DEVD-pNA cleavage at 1 uM after 6 hrs by colorimetric assay relative to control; assay type: functional
[2] = system: U-937; experiment: Induction of apoptosis in human U937 cells assessed as caspase 3/7-mediated DEVD-pNA cleavage at 1 uM after 6 hrs by colorimetric assay relative to control; assay type: functional
[3] = system: HL-60; experiment: Induction of apoptosis in human HL60 cells assessed as caspase 3/7-mediated DEVD-pNA cleavage at 1 uM after 6 hrs by colorimetric assay relative to control; assay type: functional
[4] = system: MOLT-3; experiment: Induction of apoptosis in human MOLT3 cells assessed as caspase9-mediated LEHD-pNA cleavage at 1 uM after 6 hrs by colorimetric assay; assay type: functional, cell-based
[5] = system: U-937; experiment: Induction of apoptosis in human U937 cells assessed as caspase9-mediated LEHD-pNA cleavage at 1 uM after 6 hrs by colorimetric assay; assay type: functional, cell-based
[6] = system: HL-60; experiment: Induction of apoptosis in human HL60 cells assessed as caspase9-mediated LEHD-pNA cleavage at 1 uM after 6 hrs by colorimetric assay; assay type: functional, cell-based
[7] = system: MOLT-3; experiment: Induction of apoptosis in human MOLT3 cells assessed as caspase 8-mediated IETD-pNA cleavage at 1 uM after 6 hrs by colorimetric assay; assay type: functional, cell-based
[8] = system: U-937; experiment: Induction of apoptosis in human U937 cells assessed as caspase 8-mediated IETD-pNA cleavage at 1 uM after 6 hrs by colorimetric assay; assay type: functional, cell-based
[9] = system: MOLT-3; experiment: Induction of apoptosis in human MOLT3 cells assessed as caspase 3/7-mediated DEVD-pNA cleavage at 1 uM after 6 hrs by colorimetric assay; assay type: functional, cell-based
[10] = system: HL-60; experiment: Induction of apoptosis in human HL60 cells assessed as caspase 8-mediated IETD-pNA cleavage at 1 uM after 6 hrs by colorimetric assay; assay type: functional, cell-based
[11] = system: U-937; experiment: Induction of apoptosis in human U937 cells assessed as caspase 3/7-mediated DEVD-pNA cleavage at 1 uM after 6 hrs by colorimetric assay; assay type: functional, cell-based
[12] = system: HL-60; experiment: Induction of apoptosis in human HL60 cells assessed as caspase 3/7-mediated DEVD-pNA cleavage at 1 uM after 6 hrs by colorimetric assay; assay type: functional, cell-based
[13] = system: MOLT-3; experiment: Induction of apoptosis in human MOLT3 cells assessed as cytochrome c release at 1 uM after 6 hrs by Western blot analysis; assay type: functional, cell-based
[14] = system: U-937; experiment: Induction of apoptosis in human U937 cells assessed as cytochrome c release at 1 uM after 6 hrs by Western blot analysis; assay type: functional, cell-based
[15] = system: HL-60; experiment: Induction of apoptosis in human HL60 cells assessed as cytochrome c release at 1 uM after 6 hrs by Western blot analysis; assay type: functional, cell-based
[16] = system: MOLT-3; experiment: Induction of apoptosis in human MOLT3 cells assessed as caspase-3-mediated PARP hydrolysis at 1 uM after 6 hrs by Western blot analysis; assay type: functional, cell-based
[17] = system: U-937; experiment: Induction of apoptosis in human U937 cells assessed as caspase-3-mediated PARP hydrolysis at 1 uM after 6 hrs by Western blot analysis; assay type: functional, cell-based
[18] = system: HL-60; experiment: Induction of apoptosis in human HL60 cells assessed as caspase-3-mediated PARP hydrolysis at 1 uM after 6 hrs by Western blot analysis; assay type: functional, cell-based
[19] = system: MOLT-3; experiment: Induction of apoptosis in human MOLT3 cells assessed as procaspase-9 activation at 1 uM after 6 hrs by Western blot analysis; assay type: functional, cell-based
[20] = system: U-937; experiment: Induction of apoptosis in human U937 cells assessed as procaspase-9 activation at 1 uM after 6 hrs by Western blot analysis; assay type: functional, cell-based
[21] = system: HL-60; experiment: Induction of apoptosis in human HL60 cells assessed as procaspase-9 activation at 1 uM after 6 hrs by Western blot analysis; assay type: functional, cell-based
[22] = system: MOLT-3; experiment: Induction of apoptosis in human MOLT3 cells assessed as procaspase-8 activation at 1 uM after 6 hrs by Western blot analysis; assay type: functional, cell-based
[23] = system: U-937; experiment: Induction of apoptosis in human U937 cells assessed as procaspase-8 activation at 1 uM after 6 hrs by Western blot analysis; assay type: functional, cell-based
[24] = system: HL-60; experiment: Induction of apoptosis in human HL60 cells assessed as procaspase-8 activation at 1 uM after 6 hrs by Western blot analysis; assay type: functional, cell-based
[25] = system: MOLT-3; experiment: Induction of apoptosis in human MOLT3 cells assessed as procaspase-7 activation at 1 uM after 6 hrs by Western blot analysis; assay type: functional, cell-based
[26] = system: U-937; experiment: Induction of apoptosis in human U937 cells assessed as procaspase-6 activation at 1 uM after 6 hrs by Western blot analysis; assay type: functional, cell-based
[27] = system: HL-60; experiment: Induction of apoptosis in human HL60 cells assessed as procaspase-6 activation at 1 uM after 6 hrs by Western blot analysis; assay type: functional, cell-based
[28] = system: MOLT-3; experiment: Induction of apoptosis in human MOLT3 cells assessed as procaspase-3 activation at 1 uM after 6 hrs by Western blot analysis; assay type: functional, cell-based
[29] = system: U-937; experiment: Induction of apoptosis in human U937 cells assessed as procaspase-3 activation at 1 uM after 6 hrs by Western blot analysis; assay type: functional, cell-based
[30] = system: HL-60; experiment: Induction of apoptosis in human HL60 cells assessed as procaspase-3 activation at 1 uM after 6 hrs by Western blot analysis; assay type: functional, cell-based
[31] = system: HL-60; experiment: Induction of apoptosis in human HL60 cells assessed as hypodiploid DNA content at 3 uM after 6 hrs by propidium iodide staining-based flow cytometry relative to control; assay type: functional
[32] = system: MOLT-3; experiment: Induction of apoptosis in human MOLT3 cells assessed as chromatin hydrolysis at 1 uM after 6 hrs by agarose gel electrophoresis; assay type: functional, cell-based
[33] = system: U-937; experiment: Induction of apoptosis in human U937 cells assessed as chromatin hydrolysis at 1 uM after 6 hrs by agarose gel electrophoresis; assay type: functional, cell-based
[34] = system: HL-60; experiment: Induction of apoptosis in human HL60 cells assessed as chromatin hydrolysis at 1 uM after 6 hrs by agarose gel electrophoresis; assay type: functional, cell-based
[35] = system: U-937; experiment: Induction of apoptosis in human U937 cells assessed as appearance of apoptotic bodies at 1 uM after 6 hrs by Hoechst 33258 staining based fluorescence microscopy; assay type: functional, cell-based
[36] = system: U-937; experiment: Induction of apoptosis in human U937 cells assessed as chromatin condensation at 1 uM after 6 hrs by Hoechst 33258 staining based fluorescence microscopy; assay type: functional, cell-based
[37] = system: HL-60; experiment: Induction of apoptosis in human HL60 cells assessed as appearance of apoptotic bodies at 1 uM after 6 hrs by Hoechst 33258 staining based fluorescence microscopy; assay type: functional, cell-based
[38] = system: HL-60; experiment: Induction of apoptosis in human HL60 cells assessed as chromatin condensation at 1 uM after 6 hrs by Hoechst 33258 staining based fluorescence microscopy; assay type: functional, cell-based
[39] = system: MOLT-3; experiment: Cytotoxicity against human MOLT3 cells after 4 hrs by MTT assay; assay type: functional, cell-based; conditions: for IC50: MOLT-3, 4 h
[40] = system: U-937; experiment: Cytotoxicity against human U937 cells after 4 hrs by MTT assay; assay type: functional, cell-based; conditions: for IC50: U-937, 4 h
[41] = system: HL-60; experiment: Cytotoxicity against human HL60 cells after 4 hrs by MTT assay; assay type: functional, cell-based; conditions: for IC50: HL-60, 4 h
[42] = system: HeLa; experiment: Cytotoxicity against human HeLa cells after 4 days by Coulter counter analysis; assay type: functional, cell-based; conditions: 96 h
[43] = system: CCRF-CEM; experiment: Cytotoxicity against human CEM cells after 3 days by Coulter counter analysis; assay type: functional, cell-based; conditions: 72 h
[44] = system: FM3A; experiment: Cytotoxicity against mouse FM3A cells after 2 days by Coulter counter analysis; assay type: functional, cell-based; conditions: 48 h
[45] = system: L1210; experiment: Cytotoxicity against mouse L1210 cells after 2 days by Coulter counter analysis; assay type: functional, cell-based; conditions: L1210, 48 h
[46] = system: U-937; experiment: Induction of apoptosis in human U937 cells assessed as procaspase-7 activation at 1 uM after 6 hrs by Western blot analysis; assay type: functional, cell-based
[47] = system: HL-60; experiment: Induction of apoptosis in human HL60 cells assessed as procaspase-7 activation at 1 uM after 6 hrs by Western blot analysis; assay type: functional, cell-based
[48] = system: MOLT-3; experiment: Induction of apoptosis in human MOLT3 cells assessed as procaspase-6 activation at 1 uM after 6 hrs by Western blot analysis; assay type: functional, cell-based
[49] = system: U-937; experiment: Induction of apoptosis in human U937 cells assessed as hypodiploid DNA content at 3 uM after 6 hrs by propidium iodide staining-based flow cytometry relative to control; assay type: functional

With `C=C(Br)C(=O)Nc1cccc(/C=C2\SC(=O)N(Cc3ccccc3)C2=O)c1` the “fold change (FC)” value [1] was over 2, the “fold change (FC)” value [2] was over 10 and the “fold change (FC)” value [3] was over 5. The Activity [4] was “Active”, the Activity [5] was “Active” and the Activity [6] was “Active”. For the same compound, the Activity [7] was “Active”, the Activity [8] was “Active” and the Activity [9] was “Active”. The Activity [10] was “Active”, the Activity [11] was “Active” and the Activity [12] was “Active”. For the same compound, the Activity [13] was “Active”, the Activity [14] was “Active” and the Activity [15] was “Active”. For the same compound, the Activity [16] was “Active”, the Activity [17] was “Active” and the Activity [18] was “Active”. For the same compound, the Activity [19] was “Active”, the Activity [20] was “Active” and the Activity [21] was “Active”. The Activity [22] was “Active”, the Activity [23] was “Active” and the Activity [24] was “Active”. For the same compound, the Activity [25] was “Active”, the Activity [26] was “Active” and the Activity [27] was “Active”. The Activity [28] was “Active”, the Activity [29] was “Active” and the Activity [30] was “Active”. The “fold change (FC)” value [31] was 12, the Activity [32] was “inactive” and the Activity [33] was “Active”. For the same compound, the Activity [34] was “Active”, the Activity [35] was “Active” and the Activity [36] was “Active”. For the same compound, the Activity [37] was “Active”, the Activity [38] was “Active” and the Activity [39] was “Dose-dependent effect”. The IC50 [39] was 600 nM, the Activity [40] was “Dose-dependent effect” and the IC50 [40] was 620 nM. For the same compound, the Activity [41] was “Dose-dependent effect”, the IC50 [41] was 690 nM and the IC50 [42] was 1400 nM. For the same compound, the IC50 [43] was 510 nM, the IC50 [44] was 810 nM and the IC50 [45] was 380 nM. For the same compound, the Activity [46] was “Active”, the Activity [47] was “Active” and the Activity [48] was “Active”. For the same compound, the “fold change (FC)” value [49] was 6.
With `C=C(Br)C(=O)Nc1cccc(/C=C2\SC(=O)N(Cc3ccc(C(F)(F)F)cc3)C2=O)c1` the “fold change (FC)” value [1] was over 2, the “fold change (FC)” value [2] was over 10 and the “fold change (FC)” value [3] was over 5. The Activity [4] was “Active”, the Activity [5] was “Active” and the Activity [6] was “Active”. The Activity [7] was “Active”, the Activity [8] was “Active” and the Activity [9] was “Active”. For the same compound, the Activity [10] was “Active”, the Activity [11] was “Active” and the Activity [12] was “Active”. The Activity [13] was “Active”, the Activity [14] was “Active” and the Activity [15] was “Active”. For the same compound, the Activity [16] was “Active”, the Activity [17] was “Active” and the Activity [18] was “Active”. For the same compound, the Activity [19] was “Active”, the Activity [20] was “Active” and the Activity [21] was “Active”. The Activity [22] was “Active”, the Activity [23] was “Active” and the Activity [24] was “Active”. For the same compound, the Activity [25] was “Active”, the Activity [26] was “Active” and the Activity [27] was “Active”. For the same compound, the Activity [28] was “Active”, the Activity [29] was “Active” and the Activity [30] was “Active”. For the same compound, the “fold change (FC)” value [31] was 23, the Activity [32] was “inactive” and the Activity [33] was “Active”. For the same compound, the Activity [34] was “Active”, the Activity [35] was “Active” and the Activity [36] was “Active”. The Activity [37] was “Active”, the Activity [38] was “Active” and the Activity [39] was “Dose-dependent effect”. The IC50 [39] was 710 nM, the Activity [40] was “Dose-dependent effect” and the IC50 [40] was 500 nM. The Activity [41] was “Dose-dependent effect”, the IC50 [41] was 450 nM and the IC50 [42] was 820 nM. It also gave an IC50 [43] of 920 nM, an IC50 [44] of 870 nM and an IC50 [45] of 720 nM. For the same compound, the Activity [46] was “Active”, the Activity [47] was “Active” and the Activity [48] was “Active”. For the same compound, the “fold change (FC)” value [49] was 16.
